Results as given in patent US9468209B2, “Method for eradicating weeds with derivatives of 3-acetyl-5-sec-butyl-4-hydroxy-3-pyrrolin-2-one” (priority 2012, dated 2016).

How the values were obtained:
Assay in all cases: Leaf piece damage test
Format in all cases: in vivo
Set-up in all cases: key: 4: The leaf completely dead; 3: Two third of the leaf withered; 2: One half of the leaf withered; 1: Only edge of the leaf withered; 0: Not damage at all
Conditions in all cases: 50 μg/mL, 4 days
[1] = test system: Acalypha australis
Description: (§1) Compounds 7, 14, 15, 16, 40, 45, 48 and 53 were dissolved individually in small amount of methanol, and diluted with distilled water to concentration of 50 μg/mL. Methanol water solution and pure water were used as control. A piece of 5 mm leaf was taken from the second leaf of weed sample and was treated with the solution three times. 5 pieces of the leaf were prepared for each treatment. The damage data were collected 4 days later. The measurement of damage level is described in the Table 9.
(§2) The measurement of the plant damage was calculated by the formula: Damage Index=Σ(damage level×number of plants)×100/4/number of plants in each treatment.

[2] = test system: Redroot pigweed (Amaramthus retroflexus)
Description: as §1, §2

[3] = test system: Rumex japonicus
Description: as §1, §2

[4] = test system: Dichondra repens
Description: as §1, §2

[5] = test system: Cyperus rotundus
Description: as §1, §2

[6] = test system: Lamium amplexicaule
Description: as §1, §2

[7] = test system: Aster ageratoides var. scaberulus
Description: as §1, §2

[8] = test system: Polygonum hydropiper
Description: as §1, §2

[9] = test system: Pigweed (Amaranthus spinosus)
Description: as §1, §2

[10] = test system: Lapsana apogonoides
Description: as §1, §2

[11] = test system: Eupatorium adenophorum
Description: as §1, §2

[12] = test system: Xanthium sibiricum
Description: as §1, §2

[13] = test system: Youngia japonica
Description: as §1, §2

[14] = test system: Cayratia japonica
Description: as §1, §2

[15] = test system: Japanese alopecurus
Description: as §1, §2

[16] = test system: Ambrosia artemisiifolia
Description: as §1, §2

[17] = test system: Duchesnea indica
Description: as §1, §2

[18] = test system: Keng stiffgrass
Description: as §1, §2

[19] = test system: Equal alopecurus
Description: as §1, §2

[20] = test system: Japanese false bindweed (Calystegia hederacea)
Description: as §1, §2

[21] = test system: Leptochloa chinensis
Description: as §1, §2

[22] = test system: Conyza canademsis
Description: as §1, §2

Compound `CCCCC1NC(=O)C(C(C)=O)=C1O` (stereo not shown) [Compound 14] has a Damage level [1] of 2, a Damage level [2] of 2 and a Damage level [3] of 1. For the same compound, the Damage level [4] was 2, the Damage level [5] was 2 and the Damage level [6] was 2. It also gave a Damage level [7] of 3, a Damage level [8] of 2 and a Damage level [9] of 2. The Damage level [10] was 3, the Damage level [11] was 3 and the Damage level [12] was 2. It also gave a Damage level [13] of 3, a Damage level [14] of 2 and a Damage level [15] of 3. It also gave a Damage level [16] of 3, a Damage level [17] of 2 and a Damage level [18] of 3. It also gave a Damage level [19] of 3, a Damage level [20] of 3 and a Damage level [21] of 4. For the same compound, the Damage level [22] was 3.

With `CCCCCC1NC(=O)C(C(C)=O)=C1O` (stereo not shown) [Compound 15] the Damage level [1] was 2, the Damage level [2] was 2 and the Damage level [3] was 2. It also gave a Damage level [4] of 2, a Damage level [5] of 2 and a Damage level [6] of 3. The Damage level [7] was 3, the Damage level [8] was 2 and the Damage level [9] was 2. It also gave a Damage level [10] of 2, a Damage level [11] of 4 and a Damage level [12] of 2. For the same compound, the Damage level [13] was 3, the Damage level [14] was 2 and the Damage level [15] was 3. The Damage level [16] was 2, the Damage level [17] was 3 and the Damage level [18] was 3. It also gave a Damage level [19] of 3, a Damage level [20] of 3 and a Damage level [21] of 4. It also gave a Damage level [22] of 3.

`CCCCCCC1NC(=O)C(C(C)=O)=C1O` (stereo not shown) [Compound 16] was tested, and the Damage level [1] was 2, the Damage level [2] was 3 and the Damage level [3] was 2. It also gave a Damage level [4] of 3, a Damage level [5] of 2 and a Damage level [6] of 2. For the same compound, the Damage level [7] was 4, the Damage level [8] was 3 and the Damage level [9] was 2. It also gave a Damage level [10] of 3, a Damage level [11] of 4 and a Damage level [12] of 2. It also gave a Damage level [13] of 3, a Damage level [14] of 2 and a Damage level [15] of 3. The Damage level [16] was 3, the Damage level [17] was 2 and the Damage level [18] was 3. The Damage level [19] was 3, the Damage level [20] was 4 and the Damage level [21] was 4. For the same compound, the Damage level [22] was 3.

`CCCC(Cl)C1NC(=O)C(C(C)=O)=C1O` (stereo not shown) [Compound 40] showed a Damage level [1] of 3, a Damage level [2] of 3 and a Damage level [3] of 2. It also gave a Damage level [4] of 3, a Damage level [5] of 2 and a Damage level [6] of 3. For the same compound, the Damage level [7] was 3, the Damage level [8] was 2 and the Damage level [9] was 2. The Damage level [10] was 3, the Damage level [11] was 4 and the Damage level [12] was 2. For the same compound, the Damage level [13] was 3, the Damage level [14] was 2 and the Damage level [15] was 3. The Damage level [16] was 3, the Damage level [17] was 2 and the Damage level [18] was 3. For the same compound, the Damage level [19] was 3, the Damage level [20] was 3 and the Damage level [21] was 4. It also gave a Damage level [22] of 3.

In the case of `CCC(C)C1NC(=O)C(C(=O)CCF)=C1O` (stereo not shown) [Compound 44], the Damage level [1] was 3, the Damage level [2] was 2 and the Damage level [3] was 3. For the same compound, the Damage level [4] was 2, the Damage level [5] was 2 and the Damage level [6] was 3. For the same compound, the Damage level [7] was 4, the Damage level [8] was 3 and the Damage level [9] was 3. The Damage level [10] was 3, the Damage level [11] was 4 and the Damage level [12] was 2. For the same compound, the Damage level [13] was 3, the Damage level [14] was 3 and the Damage level [15] was 4. For the same compound, the Damage level [16] was 4, the Damage level [17] was 3 and the Damage level [18] was 3. For the same compound, the Damage level [19] was 3, the Damage level [20] was 4 and the Damage level [21] was 4. It also gave a Damage level [22] of 4.

With `CCC(C)C1NC(=O)C(C(=O)CCc2cc(Cl)cc(Cl)c2)=C1O` (stereo not shown) [Compound 48] the Damage level [1] was 3, the Damage level [2] was 2 and the Damage level [3] was 2. For the same compound, the Damage level [4] was 3, the Damage level [5] was 2 and the Damage level [6] was 2. It also gave a Damage level [7] of 4, a Damage level [8] of 3 and a Damage level [9] of 3. It also gave a Damage level [10] of 4, a Damage level [11] of 4 and a Damage level [12] of 3. The Damage level [13] was 3, the Damage level [14] was 3 and the Damage level [15] was 4. For the same compound, the Damage level [16] was 3, the Damage level [17] was 3 and the Damage level [18] was 4. It also gave a Damage level [19] of 4, a Damage level [20] of 4 and a Damage level [21] of 4. It also gave a Damage level [22] of 4.

For `CCCC(C#N)C1NC(=O)C(=C(C)O)C1=O` (stereo not shown) [Compound 53], the Damage level [1] was 2, the Damage level [2] was 3 and the Damage level [3] was 3. The Damage level [4] was 2, the Damage level [5] was 2 and the Damage level [6] was 2. It also gave a Damage level [7] of 4, a Damage level [8] of 3 and a Damage level [9] of 3. For the same compound, the Damage level [10] was 3, the Damage level [11] was 4 and the Damage level [12] was 3. It also gave a Damage level [13] of 4, a Damage level [14] of 3 and a Damage level [15] of 3. For the same compound, the Damage level [16] was 3, the Damage level [17] was 3 and the Damage level [18] was 4. It also gave a Damage level [19] of 4, a Damage level [20] of 4 and a Damage level [21] of 4. It also gave a Damage level [22] of 3.
